Measurements: patent publication US20260242340A1, “COMPOUNDS AND METHODS FOR TREATING PROTEIN AGGREGATION DISEASES” (ACELOT, INC., priority 2023, published 2026)

Key:
Format in all cases: biochemical
[1] = biological target: T1, amyloid beta peptide 42 (Aβ42) protein aggregates (Homo sapiens, UniProt P05067); assay: Atomic force microscopy (AFM) of amyloid beta peptide protein aggregation; conditions: pre-incubated 10 μM Aβ42, 1:1 compound:Aβ42 ratio, 60 minutes after compound addition
T1 construct: amyloid beta peptide 42 (Aβ42) protein aggregates
T1 sequence (P05067 672-713 limits assumed): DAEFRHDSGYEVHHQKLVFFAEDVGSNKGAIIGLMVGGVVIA
Procedure: Atomic force microscopy (AFM) was utilized to study the effect of compound 1 on the formation of larger scale amyloid beta peptide 42 (Aβ42) protein aggregates and to determine the effect on pre-formed aggregates and fibrils. Amyloid beta peptide 42 protein aggregates are a major component of the amyloid plaques found in the brains of people with Alzheimer's disease. A 50 μL aliquot of 10 μM Aβ42 solution in 10 mM ammonium acetate was removed and drop-cast onto a mica disc, dried at ambient conditions in a desiccator, and imaged. It took approximately 5 min to prepare the peptide and for the disc to dry, making it the earliest time Aβ42 aggregation can be observed. After 5 min incubation, large globular aggregates formed but few fibrils were observed (FIG. 1A). After 60 min, there was a clear trend toward higher fibril content and larger oligomers. Thus, FIG. 1A represents a control, showing Aβ42 aggregation without the addition of any compound causing Aβ42 aggregation disruption.
Compound 1 was added to the same solution of pre-incubated Aβ42 in a 1:1 compound:Aβ42 ratio. The AFM image shown in FIG. 1B was taken at 60 minutes after compound 1 addition.

Aβ 1-42 = biological target: T2, Aβ 1-42 (Homo sapiens, UniProt P05067); assay: Aβ42 thioflavin T assay; conditions: 50 μM compound, 5 μM Aβ 1-42, ThT RFU at 15 hours; 100% = Aβ + DMSO; read-out: Aβ42 % aggregation at 50 μM
T2 construct: The monomeric form of Aβ 1-42 (rPeptide, A1170-025) film; purchased rPeptide A1170-025
T2 sequence (P05067 672-713 limits assumed): as above
Procedure: The effect of compounds on fibril formation by Aβ 1-42 was screened using a thioflavin T (ThT) fluorescence assay in a 96-well plate format. The monomeric form of Aβ 1-42 (rPeptide, A1170-025) film was diluted with 10 mM NaOH to form a 1 mg/ml stock solution. This stock solution was then further diluted with cell culture grade water (Cytiva, SH30529.01) and 10×PBS (VWR, 97063-660) to a working concentration of 100 μM in 1×PBS on ice. Compounds were initially dissolved in 100% DMSO (MilliporeSigma, D2650) at room temperature to make a 10 mM stock and stored at −20° C. prior to the experiment. On the day of the experiment, the stock solution was diluted with 1×PBS to a concentration of 500 μM, containing 5% DMSO. The reaction mixture, containing 10 μM ThT […], 5 μM Aβ 1-42, and 1×PBS was prepared in 15 ml Falcon centrifuge tubes (Corning, 352070) and kept on ice during preparation. The reaction mixture was then dispensed into multiple wells of a 96-well half-area, low-binding polyethylene non-treated plate (Corning, 3880) with a clear bottom, at 90 μL per well. To each well, 10 μL of 500 μM compound stock was added, with three replicates per compound. To account for the presence of DMSO, 5% DMSO in 1×PBS was used as the vehicle control. The positive control consisted of 10 μM ThT, 5 μM Aβ 1-42, and 0.5% DMSO in 1×PBS, while the negative control consisted of 10 μM ThT and 0.5% DMSO in 1×PBS. The plates were sealed with polyester sealing tape (VWR, 89134-430) to prevent evaporation and then placed in a plate reader (Molecular Devices SpectraMax ID5) at 37° C. without agitation. ThT fluorescence was measured through the bottom of the plate using 440- and 480-nm excitation and emission filters for 15 hours at 0.5-hour intervals. Each well was scanned at 5 points with a 1.25 mm distance between points. The relative fluorescence unit (RFU) at 15 hours was used to rank the percent of aggregation for all tested compounds and controls.

[2] = biological target: TDP-43 peptide (amino acids 307-319) (Homo sapiens, UniProt Q13148); assay: TDP-43 thioflavin T assay; conditions: ThT RFU at 15 hours; 100% = TDP-43 + DMSO
Procedure: The effect of compounds on fibril formation by TDP-43 peptide (amino acids 307-319) was screened using a thioflavin T (ThT) fluorescence assay in a 96-well plate format. The monomeric form of TDP-43 307-319 was stored in HFIP at −20° C. in 32 μL vials and then thawed on ice. After thawing a stock aliquot on ice, 16 μL of HFIP and 432 μL 100 mM ammonium acetate was added. This mix was pipetted three times. Three such prepared aliquots were combined to create a master mix. 400 μM of ThT stock was prepared by dissolving 31.8 mg ThT in 10 mL Milli-Q water to make […] stock. The 10 mM ThT stock was then diluted to 400 μM with Milli-Q water and stored at −20° C. until use. 20 μL aliquots of compounds were used as initial starting material. 98 μL of master mix was then added to each well of 96-well plate, and then 2 μL of compounds was added to each well testing a compound. The plate was spun at 4700×rpm to remove bubbles at 4° C., and then the plate measurements were collected. ThT fluorescence was measured through the bottom of the plate using 440- and 480-nm excitation and emission filters for 15 hours at 0.5-hour intervals. Each well was scanned at 5 points with a 1.25 mm distance between points. The relative fluorescence unit (RFU) at 15 hours was used to rank the percent of aggregation for all tested compounds.

| Compound | Aβ42 protein aggregation (AFM image, FIG. 1B) [1] | activity at 50 µM (Aβ 1-42) | % aggregation TDP-43 ThT at 50 μM TDP-43 [2] |
| --- | --- | --- | --- |
| CC(=O)Nc1ccc2c(c1)CCN(CCc1cccc(Cl)c1)C2 [Compound 1] | dramatic reduction | 60.9% | 77.4% |
| CC(=O)Nc1ccc2c(c1)CCN(CCc1ccc(F)c(Cl)c1)C2 [Compound 2] |  | 73.5% | 80.7% |
